Reference: US9169205B2, “Pyrrolidine derivatives, pharmaceutical compositions and uses thereof” (Boehringer Ingelheim International GmbH, priority 2012, dated 2015)

What follows are compounds tested against human ACC2 (Homo sapiens (Human), UniProt O00763) (assay: ACC2 assay (spectrophotometric 384 well assay, NADH-linked kinetic method)). Conditions: hACC2 construct lacking 128 N-terminal amino acids, 25° C., 340 nm.
Assay type: biochemical
Procedure: Spectrophotometric 384 Well Assay
Malonyl CoA formation by acetyl CoA carboxylases is stoichometrically linked to the consumption of ATP. ACC2 activity is measured in a NADH-linked kinetic method measuring ADP generated during the ACC reaction using a coupled lactate dehydrogenase/pyruvate kinase reaction.
The protein is then expressed in insect cells using a baculoviral expression system. Protein purification is performed by anion exchange.
All compounds are dissolved in dimethyl sulfoxide (DMSO) to a concentration of 10 mM.
The enzymatic reaction is then started by addition of a mixture of NADH, acetyl Coenzyme A (both 200 μM f.c.) and ATP (500 uM f.c.). The decrease of the optical density (slope S) is then determined at 25° C. at a wavelength of 340 nm over 15 minutes in a spectrophotometric reader.
Each assay microtiter plate contains wells with vehicle instead of compound as controls for the non-inhibited enzyme (100% CTL; ‘HIGH’) and wells without acetyl-CoA as controls for non-specific NADH degradation (0% CTL; ‘LOW’).

human ACC2, sequence (O00763 129-2458): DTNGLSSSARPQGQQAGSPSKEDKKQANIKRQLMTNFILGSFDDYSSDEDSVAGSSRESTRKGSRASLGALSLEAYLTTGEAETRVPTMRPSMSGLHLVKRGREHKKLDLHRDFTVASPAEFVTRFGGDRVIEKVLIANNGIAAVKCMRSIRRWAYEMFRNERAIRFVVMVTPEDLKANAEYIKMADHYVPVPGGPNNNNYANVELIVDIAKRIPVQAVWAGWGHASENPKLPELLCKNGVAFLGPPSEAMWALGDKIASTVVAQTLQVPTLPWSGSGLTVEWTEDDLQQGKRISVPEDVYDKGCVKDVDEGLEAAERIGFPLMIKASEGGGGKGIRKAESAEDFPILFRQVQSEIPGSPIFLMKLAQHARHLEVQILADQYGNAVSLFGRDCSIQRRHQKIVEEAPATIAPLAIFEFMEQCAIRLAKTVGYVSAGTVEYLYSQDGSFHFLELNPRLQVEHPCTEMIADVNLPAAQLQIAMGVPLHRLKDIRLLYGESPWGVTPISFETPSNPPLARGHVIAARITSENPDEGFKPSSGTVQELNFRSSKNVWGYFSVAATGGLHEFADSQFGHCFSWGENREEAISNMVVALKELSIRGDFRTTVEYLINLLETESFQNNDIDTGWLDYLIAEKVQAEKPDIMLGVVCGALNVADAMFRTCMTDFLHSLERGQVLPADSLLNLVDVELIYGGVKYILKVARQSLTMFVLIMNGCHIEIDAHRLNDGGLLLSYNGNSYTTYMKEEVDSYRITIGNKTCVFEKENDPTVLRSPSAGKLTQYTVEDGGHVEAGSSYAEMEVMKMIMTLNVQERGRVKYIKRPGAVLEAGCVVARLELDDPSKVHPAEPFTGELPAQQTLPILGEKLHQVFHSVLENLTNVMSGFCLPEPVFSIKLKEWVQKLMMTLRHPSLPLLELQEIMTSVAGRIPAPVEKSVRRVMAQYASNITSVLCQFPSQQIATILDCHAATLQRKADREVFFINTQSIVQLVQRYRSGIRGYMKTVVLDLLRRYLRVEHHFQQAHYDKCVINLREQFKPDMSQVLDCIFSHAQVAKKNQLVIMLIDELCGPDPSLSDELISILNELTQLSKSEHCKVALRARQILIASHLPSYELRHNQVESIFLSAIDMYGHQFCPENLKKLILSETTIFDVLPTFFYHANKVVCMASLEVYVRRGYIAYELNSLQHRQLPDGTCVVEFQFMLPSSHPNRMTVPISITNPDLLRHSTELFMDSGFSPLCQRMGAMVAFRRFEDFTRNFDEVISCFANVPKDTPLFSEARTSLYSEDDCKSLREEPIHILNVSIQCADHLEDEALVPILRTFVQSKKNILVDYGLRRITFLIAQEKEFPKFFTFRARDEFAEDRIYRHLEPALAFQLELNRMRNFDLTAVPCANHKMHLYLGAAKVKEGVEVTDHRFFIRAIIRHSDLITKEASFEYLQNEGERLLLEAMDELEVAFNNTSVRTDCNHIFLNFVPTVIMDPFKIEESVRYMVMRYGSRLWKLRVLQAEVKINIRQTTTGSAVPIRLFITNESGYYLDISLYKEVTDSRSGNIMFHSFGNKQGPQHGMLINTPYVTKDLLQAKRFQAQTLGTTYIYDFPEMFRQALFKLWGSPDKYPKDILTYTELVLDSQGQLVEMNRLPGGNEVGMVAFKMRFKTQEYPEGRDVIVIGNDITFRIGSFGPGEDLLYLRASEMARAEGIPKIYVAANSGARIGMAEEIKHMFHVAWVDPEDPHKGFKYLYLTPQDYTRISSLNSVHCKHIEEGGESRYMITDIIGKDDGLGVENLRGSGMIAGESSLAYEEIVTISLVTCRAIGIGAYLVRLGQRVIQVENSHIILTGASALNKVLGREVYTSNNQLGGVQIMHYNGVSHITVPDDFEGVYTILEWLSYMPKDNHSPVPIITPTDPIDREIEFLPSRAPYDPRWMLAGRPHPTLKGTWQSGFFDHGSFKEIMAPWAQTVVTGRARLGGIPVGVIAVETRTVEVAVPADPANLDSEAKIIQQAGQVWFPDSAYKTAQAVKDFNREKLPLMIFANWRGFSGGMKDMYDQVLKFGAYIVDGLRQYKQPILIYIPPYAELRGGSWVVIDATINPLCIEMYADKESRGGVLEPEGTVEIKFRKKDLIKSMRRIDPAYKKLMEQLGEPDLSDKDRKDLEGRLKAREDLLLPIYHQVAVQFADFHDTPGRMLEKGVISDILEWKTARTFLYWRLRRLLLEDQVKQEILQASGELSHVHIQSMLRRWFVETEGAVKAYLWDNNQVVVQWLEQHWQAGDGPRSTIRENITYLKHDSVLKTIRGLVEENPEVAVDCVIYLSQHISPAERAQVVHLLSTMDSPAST

CCCOc1ccc(N2CCC(Oc3ccc([C@H](C)NC(C)=O)cc3)C2)c(C)c1 (some centres unmarked) [Example 1.86] and CCCOc1ccc(N2CCC(Oc3ccc([C@H](C)NC(C)=O)cc3)C2)c(Cl)c1 (some centres unmarked) [Example 1.29] are within 1.5-fold of each other in IC50: 65 nM for the first, 60 nM for the second.

First: C[C@H](NC(=O)c1cn(C)nc1C#N)c1ccc(O[C@@H]2CCN(c3ccc(OCC4CC4)cc3)C2)cc1 [Example 2.56]
Second: Cc1oncc1C(=O)N[C@@H](C)c1ccc(O[C@@H]2CCN(c3ccc(OCC4CC4)cc3)C2)cc1 [Example 2.21]
The IC50 of the first is 9.3-fold higher: 417 nM for the first, 45 nM for the second. The second is the more potent here.

First: CC(=O)N[C@@H](C)c1ccc(OC2CCN(c3ccc(OCC4CC(F)(F)C4)cc3)C2)cc1 (some centres unmarked) [Example 1.96]
Second: CCOc1ccc(N2CCC(Oc3ccc([C@H](C)NC(C)=O)cc3)C2)cc1 (some centres unmarked) [Example 1.2]
The IC50 of the first is 3.2-fold lower: 61 nM for the first, 198 nM for the second.

CC(=O)N[C@@H](C)c1ccc(OC2CCN(c3ccc4c(c3)OCCO4)C2)cc1 (some centres unmarked) [Example 1.7] and CC(=O)N[C@@H](C)c1ccc(OC2CCN(c3ccc4c(c3)OCC(C)(C)CO4)C2)cc1 (some centres unmarked) [Example 1.18] are within 1.5-fold of each other in IC50: 229 nM for the first, 214 nM for the second.

Cc1nc(N)sc1C(=O)N[C@@H](C)c1ccc(O[C@@H]2CCN(c3ccc(OCC4CC4)cc3)C2)cc1 [Example 2.40] and Cc1cc(C(=O)N[C@@H](C)c2ccc(O[C@@H]3CCN(c4ccc(OCC5CC5)cc4)C3)cc2)[nH]n1 [Example 2.8] are within 1.5-fold of each other in IC50: 384 nM for the first, 330 nM for the second.

First: CC(=O)N[C@@H](C)c1ccc(OC2CCN(c3ccc(OCC4CC4)c(F)c3)C2)cc1 (some centres unmarked) [Example 1.100]
Second: CCOc1ccc(N2CCC(Oc3ccc([C@H](C)NC(C)=O)cc3)C2)cc1F (some centres unmarked) [Example 1.99]
The IC50 of the first is 4.4-fold lower: 87 nM for the first, 383 nM for the second.

Going from CC(=O)N[C@@H](C)c1ccc(OC2CCN(c3ccc(C)cc3F)C2)cc1 (some centres unmarked) [Example 1.39] to CCOc1ccc(N2CCC(Oc3ccc([C@H](C)NC(C)=O)cc3)C2)c(F)c1 (some centres unmarked) [Example 1.19], the IC50 falls from 791 nM to 240 nM (3.3-fold).

CC(=O)N[C@@H](C)c1ccc(OC2CCN(c3ccc(Oc4ccncc4)cc3)C2)cc1 (some centres unmarked) [Example 1.66] and CC(=O)N[C@@H](C)c1ccc(O[C@H]2CCN(c3ccc(OC4CC4)cc3)C2)cc1 [Example 1.49] are within 1.5-fold of each other in IC50: 791 nM for the first, 775 nM for the second.

Going from CC(O)C(=O)N[C@@H](C)c1ccc(O[C@@H]2CCN(c3ccc(OCC4CC4)cc3)C2)cc1 (some centres unmarked) [Example 2.33] to CNC(=O)N[C@@H](C)c1ccc(OC2CCN(c3ccc(OCC4CC4)cc3)C2)cc1 (some centres unmarked) [Example 3.8], the IC50 falls from 793 nM to 73 nM (11-fold). The second is the more potent here.

Going from Cc1cc(OC2CC2)ccc1N1CC[C@@H](Oc2ccc([C@H](C)NC(=O)c3cnoc3C)cc2)C1 [Example 2.65] to Cc1cc(OC2CC2)ccc1N1CC[C@@H](Oc2ccc([C@H](C)NC(=O)CO)cc2)C1 [Example 2.58], the IC50 rises from 90 nM to 743 nM (8.3-fold). The first is the more potent here.

First: C[C@H](NC(=O)Cc1cncnc1)c1ccc(O[C@@H]2CCN(c3ccc(OCC4CC4)cc3)C2)cc1 [Example 2.7]
Second: C[C@H](NC(=O)c1cnco1)c1ccc(O[C@@H]2CCN(c3ccc(OCC4CC4)cc3)C2)cc1 [Example 2.22]
The IC50 of the first is 4-fold higher: 121 nM for the first, 30 nM for the second. The second is the more potent here.

First: CC(=O)N[C@@H](C)c1ccc(OC2CCN(c3ccc(C4CCC4)cc3)C2)cc1 (some centres unmarked) [Example 1.33]
Second: CC(=O)N[C@@H](C)c1ccc(OC2CCN(c3ccc(OC4CCC4)cc3)C2)cc1 (some centres unmarked) [Example 1.14]
The IC50 of the first is 3.5-fold higher: 125 nM for the first, 36 nM for the second.

First: Cc1ncncc1C(=O)N[C@@H](C)c1ccc(O[C@@H]2CCN(c3ccc(OCC4CC4)cc3)C2)cc1 [Example 2.18]
Second: C[C@H](NC(=O)c1ccns1)c1ccc(O[C@@H]2CCN(c3ccc(OCC4CC4)cc3)C2)cc1 [Example 2.28]
The IC50 of the first is 5.2-fold higher: 551 nM for the first, 105 nM for the second. The second is the more potent here.

First: CC(=O)N[C@@H](C)c1ccc(OC2CCN(c3ccc(OCCC(F)F)cc3)C2)cc1 (some centres unmarked) [Example 1.90]
Second: COCCOc1ccc(N2CCC(Oc3ccc([C@H](C)NC(C)=O)cc3)C2)cc1 (some centres unmarked) [Example 4.4]
The IC50 of the first is 14-fold lower: 40 nM for the first, 560 nM for the second. The first is the more potent here.

First: CC(=O)N[C@H]1C[C@@H](C(=O)N[C@@H](C)c2ccc(O[C@@H]3CCN(c4ccc(OCC5CC5)cc4)C3)cc2)NC1=O [Example 2.6]
Second: CC(=O)Nc1cc(C(=O)N[C@@H](C)c2ccc(OC3CCN(c4ccc(OCC5CC5)cc4)C3)cc2)on1 (some centres unmarked) [Example 8.2]
The IC50 of the first is 1.9-fold higher: 705 nM for the first, 365 nM for the second.

Going from CC(=O)N[C@@H](C)c1ccc(OC2CCN(c3ccc(OC(C)C)cc3C)C2)cc1 (some centres unmarked) [Example 1.85] to COCCOc1ccc(N2CCC(Oc3ccc([C@H](C)NC(C)=O)cc3)C2)c(F)c1 (some centres unmarked) [Example 1.38], the IC50 rises from 226 nM to 685 nM (3-fold). The first is the more potent here.

Compared with CCOc1ccc(N2CCC(Oc3ccc([C@H](C)NC(C)=O)cc3)C2)c(F)c1F (some centres unmarked) [Example 1.62], CCOc1cccc(N2CC[C@@H](Oc3ccc([C@H](C)NC(C)=O)cc3)C2)c1 [Example 1.5] is 1.6-fold lower in IC50: 335 nM for the first, 204 nM for the second. The second is the more potent here.

First: C[C@H](NC(=O)C1(C(=O)N(C)C)CC1)c1ccc(O[C@@H]2CCN(c3ccc(OCC4CC4)cc3)C2)cc1 [Example 2.16]
Second: C[C@H](NC(=O)C1(C#N)CC1)c1ccc(O[C@@H]2CCN(c3ccc(OCC4CC4)cc3)C2)cc1 [Example 2.35]
The IC50 of the first is 3.2-fold higher: 864 nM for the first, 273 nM for the second.

Going from C[C@H](NC(=O)Nc1ccon1)c1ccc(OC2CCN(c3ccc(OCC4CC4)cc3)C2)cc1 (some centres unmarked) [Example 3.7] to COc1cc(C(=O)N[C@@H](C)c2ccc(O[C@@H]3CCN(c4ccc(OCC5CC5)cc4)C3)cc2)on1 [Example 2.17], the IC50 rises from 56 nM to 346 nM (6.2-fold). The first is the more potent here.

Compared with CC(=O)N[C@@H](C)c1ccc(OC2CCN(c3ccc(OC4CC4)cc3C#N)C2)cc1 (some centres unmarked) [Example 1.73], CC(=O)N[C@@H](C)c1ccc(OC2CCN(c3ccc(OC4CC4)cc3)C2)cc1 (some centres unmarked) [Example 1.6] is 2.1-fold lower in IC50: 230 nM for the first, 108 nM for the second.

COCCCOc1ccc(N2CCC(Oc3ccc([C@H](C)NC(C)=O)cc3)C2)c(F)c1 (some centres unmarked) [Example 1.37] and COCCCOc1ccc(N2CC[C@@H](Oc3ccc([C@H](C)NC(C)=O)cc3)C2)cc1 [Example 4.1, N—((S)-1-(4-((R)-1-(4-(3-methoxypropoxy)phenyl)pyrrolidin-3-yloxy)phenyl)ethyl)-acetamide] are within 1.5-fold of each other in IC50: 484 nM for the first, 460 nM for the second.

Going from C[C@H](NC(=O)C(F)(F)F)c1ccc(O[C@@H]2CCN(c3ccc(OCC4CC4)cc3)C2)cc1 [Example 6, N—((S)-1-(4-((R)-1-(4-(Cyclopropylmethoxy)phenyl)pyrrolidin-3-yloxy)phenyl)-ethyl)-2,2,2-trifluoroacetamide] to CC(C)Oc1ccc(N2CC[C@@H](Oc3ccc([C@H](C)NC(=O)C(F)(F)F)cc3)C2)cc1 [Example 2.19], the IC50 rises from 39 nM to 124 nM (3.2-fold).

CCOC(=O)C1(Oc2ccc(N3CCC(Oc4ccc([C@H](C)NC(C)=O)cc4)C3)cc2)CCC1 (some centres unmarked) [Example 4.2] and CC(=O)N[C@@H](C)c1ccc(OC2CCN(c3ccc(OC4CCOC4)cc3)C2)cc1 (some centres unmarked) [Example 1.71] are within 1.5-fold of each other in IC50: 309 nM for the first, 272 nM for the second.

Compared with CC(=O)N[C@@H](C)c1ccc(OC2CCN(c3ccc(F)c(F)c3)C2)cc1 (some centres unmarked) [Example 1.28], CC(=O)N[C@@H](C)c1ccc(OC2CCN(c3cccc(C(F)(F)F)c3)C2)cc1 (some centres unmarked) [Example 1.27] is 6.1-fold lower in IC50: 672 nM for the first, 110 nM for the second. The second is the more potent here.

Going from CC(=O)N[C@@H](C)c1ccc(O[C@@H]2CCN(c3cccc(OCC4CC4)c3)C2)cc1 [Example 1.11] to C[C@H](NC(=O)N1CCC1)c1ccc(OC2CCN(c3ccc(OCC4CC4)cc3)C2)cc1 (some centres unmarked) [Example 3.3], the IC50 rises from 226 nM to 1270 nM (5.6-fold). The first is the more potent here.

First: CC(=O)N[C@@H](C)c1ccc(OC2CCN(c3ccc(OCC(C)(C)F)cc3)C2)cc1 (some centres unmarked) [Example 1.89]
Second: CC(=O)N[C@@H](C)c1ccc(OC2CCN(c3ccc(OCC(F)(F)F)cc3)C2)cc1 (some centres unmarked) [Example 1.78]
The IC50 of the first is 2.4-fold lower: 224 nM for the first, 546 nM for the second.

C[C@H](NC(=O)c1cnn(C(F)F)c1)c1ccc(O[C@@H]2CCN(c3ccc(OCC4CC4)cc3)C2)cc1 [Example 2.46] and CC(=O)Nc1cccc(C(=O)N[C@@H](C)c2ccc(O[C@@H]3CCN(c4ccc(OCC5CC5)cc4)C3)cc2)c1C [Example 2.4] are within 1.5-fold of each other in IC50: 382 nM for the first, 517 nM for the second.

Compared with CC(=O)N[C@@H](C)c1ccc(OC2CCN(c3cc(C(F)(F)F)ccc3C)C2)cc1 (some centres unmarked) [Example 1.30], CC(=O)N[C@@H](C)c1ccc(OC2CCN(c3ccc(OCC4CC4(F)F)cc3F)C2)cc1 (some centres unmarked) [Example 1.41] is 3.9-fold lower in IC50: 174 nM for the first, 45 nM for the second.
